# Measurements published in US20120238491A1, “IMMUNOLOGICALLY ACTIVE LIPOPEPTIDES AND METHODS FOR USE THEREOF” (THERIMUNEX PHARMACEUTICALS, INC., priority 2009, published 2012).
# Columns and labels:
# IL-6 mRNA = IL-6 mRNA expression in human fibroblasts; type: cell-based; settings: for IL-6 mRNA elevation relative to a -actin control: 24 hours, p<0.05; for IL-6 mRNA expression increase relative to untreated control: 24 h, normalized to -actin (FIG. 1)
# Procedure: (§1) mRNA Expression Experiments. Normal primary human fibroblasts obtained from the Coriell Institute (Camden, N.J.) were cultured in 70 mm dishes in DMEM supplemented with 10% FBS and 1× penicillin/streptomycin at 37° C. and 5% CO2. Human fibroblasts were incubated in the presence of the serum fractions, compound pDAG, the peptide moiety of pDAG, or diacylglycerol. In the initial experiments we examined the differences between fibroblasts treated with the various serum fractions, synthetic pDAG (the peptide moiety from pDAG or diacylglycerol), fibroblasts treated with LPS as a positive control, and fibroblasts without treatment. The culture medium was stored at −80° C. for ELISA of the excreted cytokine proteins (see below). Total RNA from fibroblasts was extracted using the RNeasy Mini kit (Qiagen, Valencia, Calif.) according to the manufacturer's protocol. To verify the expression of transcripts; 2.0 μg of total RNA was reverse-transcribed using Super-script-III reverse transcriptase (Invitrogen, Carlsbad Calif.), according to the manufacturer's protocol. Transcripts were quantified using SYBR Green PCR amplification (Perkin Elmer, Waltham Mass.). Primers employed in these studies are outlined in Table 6, below. All transcripts were normalized to β-actin. Briefly, 0.4 μg/μL of cDNA was tested with 10 μM of each specific primer and 1× SYBR Green in a total volume of 20 uL.
# (§2) Lipofection Studies. Cells were cultured so that at the time of transfection they were 50-80% confluent. […] PLUS reagent (0.5 μL) and lipofectamine (1 μL) were then added to the peptide Opti-MEM solution, vortexed and incubated at room temperature for 30 min. Five hundred microliters of complete DMEM was added to the fibroblasts and 0.6 μL of the peptide/lipofectamine was added and allowed to incubate overnight. RNA was extracted and processed as described above.
# (§3) Bioassays. The fractions generated from dialysis (methanol/chloroform soluble, methanol/chloroform insoluble, dialysis retentate, and the fractions collected from reversed phase HPLC) were taken to dryness by lyophilization. The freeze-dried solids were weighed and dissolved in the appropriate volume of deionized water to give a final concentration of 1 mg/mL and assayed for mRNA expression (IL-6, IL-8, MIP1α, and MIP1β) in human fibroblasts.
# MCP-1 mRNA = MCP-1 mRNA expression in human fibroblasts; type: cell-based; settings: for MCP-1 mRNA increase: relative to -actin; for MCP-1 expression in fibroblasts (in words): peptide transfected
# Procedure: as §1, §3
# MIP-1 mRNA = MIP-1 mRNA expression in human fibroblasts; type: cell-based; settings: for MIP-1 mRNA expression increase: natural pDAG 1:100 dilution, relative to -actin; for MIP-1α expression in fibroblasts (in words): peptide transfected
# Procedure: as §1, §3
# Lability to hydrolysis = type: physicochemical; settings: acidic and basic conditions
# Procedure: The C8 RP-HPLC peaks eluting between 4.83 and 9.36 min. in a non-purified fraction containing compound pDAG are hydrolysis products of compound pDAG. Therefore, the classical degradation approach to natural product structure elucidation was used. The purified compound pDAG (as a tryptophan complex) was subjected to mild acid hydrolysis, in situ N-terminal sulfonation, and analysis of the hydrolysis products to identify peptide fragments that would account for the entire structure of pDAG.
# Hydrolysis and Derivatization of the Natural Product (pDAG). […] Therefore, […] of native pDAG was subjected to mild acid hydrolysis conditions (1 N HCl in phosphate buffered saline) for 18 hours at 25° C. The post-reaction buffer salts were removed using a C18 spin column (ThermoFisher Scientific) and the hydrolysis products were eluted from the column using 50% CH3CN/0.1% TFA. The final product was brought to dryness by evaporation in vacuo at 4° C. The hydrolysis products were derivatized using the N-terminal sulfonation reagent, 4-sulfophenylisothiocyanate, and analyzed in situ by MALDITOF in an -cyano-4-hydroxycinnamic acid matrix using the method described by Wang. See Wang, D.; Kalb, S. R.; Cotter, R. J. Rapid Commun. Mass Spectrom. 2004, 18, 96-102.
# IL-8 mRNA = IL-8 mRNA expression in human fibroblasts; type: cell-based
# Procedure: as §1, §2
# Bioassays. The fractions generated from dialysis (methanol/chloroform soluble, methanol/chloroform insoluble, dialysis retentate, and the fractions collected from reversed phase HPLC) were taken to dryness by lyophilization. […]
# IL-8 protein = assay: ELISA for secreted IL-8 protein from human fibroblasts; type: cell-based; settings: 0.3 to 3 ng/mL
# Procedure: Fibroblasts were treated with various concentrations of synthetic pDAG for 24 hours; the media were reserved for ELISA assays of IL-6 and IL-8, and mRNA was extracted from the cells to measure all four cytokines IL-6 mRNA was elevated 20% in response to synthetic pDAG and 40% with natural pDAG relative to a -actin control (p<0.05). […] Compound pDAG induced IL-8 expression by about 5-fold compared to untreated fibroblasts, in dose-response studies (FIG. 2). […] The MCP-1 and MIP-1 mRNA expression in human fibroblasts incubated with approximately equivalent amounts of natural pDAG (1:100 dilution) and synthetic pDAG (3 ng/mL). Both synthetic pDAG and the natural product induced a 3-fold increase in MCP-1 mRNA relative to the -actin control and increased MIP-1α mRNA expression relative to -actin by 15% (FIG. 3).
# ELISA for IL-8 Protein. Human IL-8 was measured by ELISA according to the manufacturer's specifications (eBioscience San Diego, Calif.) in the supernatants of fibroblasts cultured in complete DMEM with varying amounts of pDAG. Briefly, high affinity binding plates were coated with anti-human IL-8 overnight at 4° C. Wells were washed with Wash Buffer five times at 1 min. each wash and blocked with Assay Diluent for 60 min. at room temp. […] The reaction was halted with Stop Solution and the plate read at 450 nm with wavelength subtraction at 570 nm.
# IL-33 mRNA = IL-33 mRNA expression in human fibroblasts; type: cell-based
# Procedure: Therefore we speculated that the diacylglycerol moiety enabled the peptide to cross the cell membrane. To test this hypothesis and to ascertain the biological role of the diacylglycerol moiety in compound pDAG, if any, the peptide moiety transfected into human fibroblasts or diacylglycerol alone were evaluated by measuring the expression of mRNA (IL-1, IL-6, IL-8, IL-18, and IL-33). […] Diacylglycerol could stimulate mRNA expression of IL-33 and IL-18, but not IL-1 in fibroblasts. […] Normal primary human fibroblasts obtained from the Coriell Institute (Camden, N.J.) were cultured in 70 mm dishes in DMEM supplemented with 10% FBS and 1× penicillin/streptomycin at 37° C. and 5% CO2. Human fibroblasts were incubated in the presence of the serum fractions, compound pDAG, the peptide moiety of pDAG, or diacylglycerol. In the initial experiments we examined the differences between fibroblasts treated with the various serum fractions, synthetic pDAG (the peptide moiety from pDAG or diacylglycerol), fibroblasts treated with LPS as a positive control, and fibroblasts without treatment. The culture medium was stored at −80° C. for ELISA of the excreted cytokine proteins (see below). […] Transcripts were quantified using SYBR Green PCR amplification (Perkin Elmer, Waltham Mass.). […]
# IL-18 mRNA = IL-18 mRNA expression in human fibroblasts; type: cell-based
# Procedure: as §1, with “Therefore we speculated that the diacylglycerol moiety enabled the peptide to cross the cell membrane. To test this hypothesis and to ascertain the biological role of the diacylglycerol moiety in compound pDAG, if any, the peptide moiety transfected into human fibroblasts or diacylglycerol alone were evaluated by measuring the expression of mRNA” for “mRNA”, “(IL-1, IL-6, IL-8, IL-18, and IL-33). […] Diacylglycerol could stimulate mRNA expression of IL-33 and IL-18, but not IL-1 in fibroblasts. […]” for “Expression Experiments.”, “uL. Lipofection Studies. Cells were cultured so that at the time of transfection they were 50-80% confluent. Five microliters of the stock peptide moiety from pDAG was diluted in Opti-MEM Reduced Serum Medium to give a final concentration of 5 μg/mL. PLUS reagent (0.5 μL) and lipofectamine (1 μL) were then added to the peptide Opti-MEM solution, vortexed and incubated at room temperature for 30 min. Five hundred microliters of complete DMEM was added to the fibroblasts and 0.6 μL of the peptide/lipofectamine was added and allowed to incubate overnight. RNA was extracted and processed as described above.” for “uL.”
# IL-1 mRNA = IL-1 mRNA expression in human fibroblasts; type: cell-based
# Procedure: as §1, with “Therefore we speculated that the diacylglycerol moiety enabled the peptide to cross the cell membrane. To test this hypothesis and to ascertain the biological role of the diacylglycerol moiety in compound pDAG, if any, the peptide moiety transfected into human fibroblasts or diacylglycerol alone were evaluated by measuring the expression of mRNA” for “mRNA”, “(IL-1, IL-6, IL-8, IL-18, and IL-33). […] Diacylglycerol could stimulate mRNA expression of IL-33 and IL-18, but not IL-1 in fibroblasts. […]” for “Expression Experiments.”, “uL. Lipofection Studies. Cells were cultured so that at the time of transfection they were 50-80% confluent. Five microliters of the stock peptide moiety from pDAG was diluted in Opti-MEM Reduced Serum Medium to give a final concentration of 5 μg/mL. […]” for “uL.”
# [1] = test system: established bacterial and viral infections; assay: Administration to cows, number of white blood cells; type: in vivo; settings: various amounts
# [2] = test system: established bacterial and viral infections; assay: Administration to dogs, survival rate; type: in vivo; settings: various amounts
# IgM production = assay: Administration to rabbits, adjuvant effect on IgM production; type: in vivo; settings: administered with other drugs
# C. pneumonia = C. pneumonia load in THP-1 cells; type: cell-based; settings: 25 ng/ml and 50 ng/ml
# Source text: The pDAG produced in accordance with the invention is believed to induce fibroblast IL-6 expression similar to that of the natural product, and to induce fibroblast IL-8 mRNA and protein expression, to increase MCP-1 expression and to induce MIP-1alpha.
# HBV = HBV viral load in hepatocytes; type: cell-based; settings: 25 to 400 ng/ml
# human fibroblasts = assay: Inflammatory cytokine and chemokine production by human fibroblasts (overall stimulation); type: cell-based
# Procedure: as §1
# as §2, with “overnight.” for “overnight. RNA was extracted and processed as described above.”
# [3] = increasing concentrations of synthetic pDAG
# [4] = transfected peptide 10 ng/mL (~3 nM)
compound,measurement,setting,value
1-peptidyl-2-arachidonoyl-3-stearoyl glyceride [natural pDAG],IL-6 mRNA elevation relative to a -actin control,IL-6 mRNA,40%
same,IL-6 mRNA expression increase relative to untreated control,IL-6 mRNA; natural pDAG 1:100 dilution,~30%
same,MCP-1 mRNA increase,MCP-1 mRNA; natural pDAG 1:100 dilution,3 fold
same,MIP-1 mRNA expression increase,MIP-1 mRNA,~60%
same,MIP-1 mRNA expression increase,MIP-1 mRNA; listed as natural product,15%
same,lability to hydrolysis,Lability to hydrolysis; listed as Native pDAG,labile to acid hydrolysis
same,lability to hydrolysis,Lability to hydrolysis; listed as serum-derived compound pDAG,especially labile to hydrolysis
1-peptidyl-2-arachidonoyl-3-stearoyl glyceride [pDAG],IL-6 mRNA elevation relative to a -actin control,IL-6 mRNA; listed as synthetic pDAG,20%
same,IL-6 mRNA expression increase relative to untreated control,IL-6 mRNA; synthetic pDAG 5 ng/mL,~30%
same,IL-8 expression induction compared to untreated fibroblasts,"IL-8 mRNA; dose-response studies (FIG. 2), 24 hours",about 5 fold
same,IL-8 mRNA expression dose response,IL-8 mRNA; [3],negative dose response
same,concentration giving maximal effect (EC99) on secreted IL-8,"IL-8 protein; ELISA, 24 hours",3 ng/mL
same,secreted IL-8 protein dose response,IL-8 protein; [3],positive linear dose response
same,MCP-1 expression in fibroblasts (in words),MCP-1 mRNA,increased expression
same,MCP-1 mRNA increase,MCP-1 mRNA; synthetic pDAG 3 ng/mL,3 fold
same,MIP-1α expression in fibroblasts (in words),MIP-1 mRNA,increased expression
same,induction of IL-33,IL-33 mRNA,found to induce
same,induction of IL-18,IL-18 mRNA,found to induce
same,induction of IL-1alpha,IL-1 mRNA,found to induce
same,induction of IL-1beta,IL-1 mRNA,found to induce
same,reduction of the number of white blood cells,[1],nearly threefold
same,survival rate compared with untreated dogs,[2],over doubling the survival rate
same,adjuvant effect in terms of IgM production,IgM production,significant adjuvant effect
same,C. pneumonia load,C. pneumonia,reduction of C. pneumonia load
same,HBV viral load,HBV,reduction of HBV viral load
same,EC99 (apparent / possible maximum effective concentration),"human fibroblasts; pDAG, human fibroblasts, cytokine and chemokine production",3 ng/mL
same,EC99,"human fibroblasts; pDAG, signaling in human fibroblasts",~1 nM
"CCCCC/C=C\C/C=C\C/C=C\C/C=C\CCCC(=O)O[C@@H](CO)COC(=O)CCCCCCCCCCCCCCCCC [diacylglycerol, 1-stearoyl-2-arachidonoyl-sn-glycerol, reference compound]",increase in IL-18 mRNA expression,"IL-18 mRNA; diacylglycerol alone, ~30 nM",20%
acALYDKGYTSKEQKDCVGI [peptide moiety of pDAG],IL-6 mRNA vs untreated or lipofectamine-only fibroblasts,IL-6 mRNA; [4],substantially increased
same,IL-8 mRNA vs untreated or lipofectamine-only fibroblasts,IL-8 mRNA; [4],substantially increased
same,MCP-1 expression in fibroblasts (in words),MCP-1 mRNA,increased expression
same,MIP-1α expression in fibroblasts (in words),MIP-1 mRNA,increased expression
same,IL-33 mRNA vs untreated or lipofectamine-only fibroblasts,IL-33 mRNA; [4],substantially increased
same,IL-18 mRNA vs untreated or lipofectamine-only fibroblasts,IL-18 mRNA; [4],substantially increased
same,increase in IL-18 mRNA expression,"IL-18 mRNA; transfected peptide, ~10 nM",> 3 fold
same,IL-1 mRNA vs untreated or lipofectamine-only fibroblasts,IL-1 mRNA; [4],substantially increased
same,fold higher concentration than pDAG needed for comparable responses,"human fibroblasts; peptide moiety, not transfected","1,000 fold"
